For test [1], the target named is Ba/F3 ERBB2 A775_G776insYVMA (Homo sapiens, UniProt P04626, DUP772-775, cells depend on it). The test can be described thus: Cell viability assay, Ba/F3 ERBB2 A775_G776insYVMA. The test is classed as cell-based, mouse. Particulars: Ba/F3 ERBB2 YVMA cells, cell viability, 72 hours, CellTiter Glo; Table B5; read-out: Ba/F3 ERBB2 YVMA, IC50. The gist of the method:
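Viability after 72 h compound treatment (37 °C, 5% CO2) was quantified by CellTiter-Glo luminescence of intracellular ATP, with sigmoidal dose-response fitting. Cells were retrovirally engineered Ba/F3 lines whose growth depends on the mutant human ERBB2 in place of IL-3, plated at 3000 per well.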
In general terms: In ATP-based viability assays light output follows the ATP content of the culture.

The target of test [2] is T1, phosphorylated ERBB2 (pERBB2) (Homo sapiens, UniProt P04626).
T1 construct: endogenous in cells; host or cells: BT-474
The test can be described thus: Detection of phosphorylated ERBB2 (pERBB2) by ELISA in BT-474 cells. Conditions: four hours incubation. Type of test: cell-based. The gist of the method: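 Phospho-ERBB2 in lysates was quantified by sandwich ELISA (A450, TMB) after 4 h compound exposure at 37 °C of BT-474 cells seeded at 2.0×10^4 per well. Compounds tested at 10 µM to 0.01 nM final in four-fold steps; activity normalized to DMSO (0.1%) high and cell-free low controls.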

In test [3] the target is T2, phosphorylated EGFR (pEGFR) (Homo sapiens, UniProt P00533).
T2 construct: performed to measure phosphorylated EGFR levels using A431 cells (10% FBS); endogenous in cells; host or cells: A431
Description: Detection of phosphorylated EGFR (pEGFR) in EGF-stimulated A431 cells. The test is classed as cell-based. Conditions: A431 cells (10% FBS), 4 hours incubation, EGF 30 ng/mL 10 minutes, AlphaLISA. In outline: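 AlphaLISA read-out of EGFR phosphorylation after a 10-min EGF pulse (30 ng/mL final). A431 cells (10% FBS) had been exposed to compound for 4 h at 37 °C. IC50 was fitted from % inhibition normalised to DMSO and staurosporine control lysates.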
(In Alpha technology, singlet oxygen from a donor bead excites a nearby acceptor bead.)

Structures can show the parent of a compound that is named as a salt. Bounds are passed on as bounds.

As a reminder, the IC50 is the concentration that inhibits the measured activity by half. Low readings indicate greater potency in that assay, high ones weaker potency in that assay.

T2 sequence (P00533 25-1210): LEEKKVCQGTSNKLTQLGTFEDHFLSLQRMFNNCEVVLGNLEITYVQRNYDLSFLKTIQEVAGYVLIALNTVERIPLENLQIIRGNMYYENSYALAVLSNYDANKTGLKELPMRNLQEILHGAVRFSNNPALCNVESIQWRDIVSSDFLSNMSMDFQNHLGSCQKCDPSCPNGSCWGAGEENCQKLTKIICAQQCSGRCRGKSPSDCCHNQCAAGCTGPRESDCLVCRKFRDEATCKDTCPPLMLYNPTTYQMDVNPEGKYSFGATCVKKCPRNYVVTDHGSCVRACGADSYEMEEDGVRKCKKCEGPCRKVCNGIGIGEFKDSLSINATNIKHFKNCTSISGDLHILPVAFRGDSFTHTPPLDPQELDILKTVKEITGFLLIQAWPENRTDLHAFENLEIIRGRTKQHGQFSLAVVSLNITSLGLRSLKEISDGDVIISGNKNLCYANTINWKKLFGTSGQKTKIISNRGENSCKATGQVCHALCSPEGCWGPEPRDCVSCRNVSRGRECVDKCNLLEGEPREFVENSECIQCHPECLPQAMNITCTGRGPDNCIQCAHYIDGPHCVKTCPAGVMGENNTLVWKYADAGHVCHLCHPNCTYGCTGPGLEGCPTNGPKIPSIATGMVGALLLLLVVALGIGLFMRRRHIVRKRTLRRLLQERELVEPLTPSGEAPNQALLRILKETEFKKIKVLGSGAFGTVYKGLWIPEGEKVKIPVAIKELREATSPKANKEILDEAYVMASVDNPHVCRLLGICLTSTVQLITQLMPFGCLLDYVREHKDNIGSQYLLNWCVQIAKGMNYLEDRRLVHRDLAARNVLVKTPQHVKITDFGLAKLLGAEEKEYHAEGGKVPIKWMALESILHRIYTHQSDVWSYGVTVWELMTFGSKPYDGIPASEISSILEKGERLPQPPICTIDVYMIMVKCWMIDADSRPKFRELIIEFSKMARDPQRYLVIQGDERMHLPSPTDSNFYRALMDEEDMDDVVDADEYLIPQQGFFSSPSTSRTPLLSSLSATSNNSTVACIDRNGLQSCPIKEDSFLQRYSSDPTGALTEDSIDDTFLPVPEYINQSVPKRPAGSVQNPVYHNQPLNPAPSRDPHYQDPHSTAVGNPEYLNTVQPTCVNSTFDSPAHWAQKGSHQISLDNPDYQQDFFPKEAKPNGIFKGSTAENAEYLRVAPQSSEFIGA
T1 sequence (P04626 23-1255): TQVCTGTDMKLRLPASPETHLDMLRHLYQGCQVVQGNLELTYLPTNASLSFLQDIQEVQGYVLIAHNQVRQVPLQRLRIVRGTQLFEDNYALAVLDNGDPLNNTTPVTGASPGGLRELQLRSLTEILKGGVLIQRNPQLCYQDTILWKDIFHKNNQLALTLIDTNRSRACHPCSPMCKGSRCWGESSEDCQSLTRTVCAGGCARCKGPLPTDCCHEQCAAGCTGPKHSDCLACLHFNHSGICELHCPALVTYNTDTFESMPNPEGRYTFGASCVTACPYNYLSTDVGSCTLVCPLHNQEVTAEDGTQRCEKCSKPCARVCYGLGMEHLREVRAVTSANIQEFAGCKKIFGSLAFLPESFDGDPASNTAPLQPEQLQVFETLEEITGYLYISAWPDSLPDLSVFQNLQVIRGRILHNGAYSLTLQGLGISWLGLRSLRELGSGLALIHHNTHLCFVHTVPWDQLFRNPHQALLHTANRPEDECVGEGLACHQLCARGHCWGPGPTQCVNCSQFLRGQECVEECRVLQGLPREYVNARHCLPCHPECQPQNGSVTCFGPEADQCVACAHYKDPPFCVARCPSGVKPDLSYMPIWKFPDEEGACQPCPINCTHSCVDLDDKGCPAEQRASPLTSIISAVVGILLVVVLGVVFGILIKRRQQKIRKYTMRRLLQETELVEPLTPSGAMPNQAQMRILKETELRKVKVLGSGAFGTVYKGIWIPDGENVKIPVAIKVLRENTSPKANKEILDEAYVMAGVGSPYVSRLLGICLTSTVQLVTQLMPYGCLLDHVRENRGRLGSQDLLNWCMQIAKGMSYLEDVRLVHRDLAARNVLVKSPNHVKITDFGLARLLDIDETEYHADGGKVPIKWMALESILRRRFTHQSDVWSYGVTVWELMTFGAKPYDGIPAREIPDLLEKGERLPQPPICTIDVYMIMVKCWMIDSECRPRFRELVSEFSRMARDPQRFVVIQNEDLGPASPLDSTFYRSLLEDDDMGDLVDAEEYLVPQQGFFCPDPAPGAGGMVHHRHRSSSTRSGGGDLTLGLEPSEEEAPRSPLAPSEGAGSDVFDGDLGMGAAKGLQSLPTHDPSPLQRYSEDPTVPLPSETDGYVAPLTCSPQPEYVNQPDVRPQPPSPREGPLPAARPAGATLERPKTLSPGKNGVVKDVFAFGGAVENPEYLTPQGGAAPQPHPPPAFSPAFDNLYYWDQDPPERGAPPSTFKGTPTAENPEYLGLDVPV
Chain of Ba/F3 ERBB2 A775_G776insYVMA (P04626 with tags, fused parts or gaps DUP772-775): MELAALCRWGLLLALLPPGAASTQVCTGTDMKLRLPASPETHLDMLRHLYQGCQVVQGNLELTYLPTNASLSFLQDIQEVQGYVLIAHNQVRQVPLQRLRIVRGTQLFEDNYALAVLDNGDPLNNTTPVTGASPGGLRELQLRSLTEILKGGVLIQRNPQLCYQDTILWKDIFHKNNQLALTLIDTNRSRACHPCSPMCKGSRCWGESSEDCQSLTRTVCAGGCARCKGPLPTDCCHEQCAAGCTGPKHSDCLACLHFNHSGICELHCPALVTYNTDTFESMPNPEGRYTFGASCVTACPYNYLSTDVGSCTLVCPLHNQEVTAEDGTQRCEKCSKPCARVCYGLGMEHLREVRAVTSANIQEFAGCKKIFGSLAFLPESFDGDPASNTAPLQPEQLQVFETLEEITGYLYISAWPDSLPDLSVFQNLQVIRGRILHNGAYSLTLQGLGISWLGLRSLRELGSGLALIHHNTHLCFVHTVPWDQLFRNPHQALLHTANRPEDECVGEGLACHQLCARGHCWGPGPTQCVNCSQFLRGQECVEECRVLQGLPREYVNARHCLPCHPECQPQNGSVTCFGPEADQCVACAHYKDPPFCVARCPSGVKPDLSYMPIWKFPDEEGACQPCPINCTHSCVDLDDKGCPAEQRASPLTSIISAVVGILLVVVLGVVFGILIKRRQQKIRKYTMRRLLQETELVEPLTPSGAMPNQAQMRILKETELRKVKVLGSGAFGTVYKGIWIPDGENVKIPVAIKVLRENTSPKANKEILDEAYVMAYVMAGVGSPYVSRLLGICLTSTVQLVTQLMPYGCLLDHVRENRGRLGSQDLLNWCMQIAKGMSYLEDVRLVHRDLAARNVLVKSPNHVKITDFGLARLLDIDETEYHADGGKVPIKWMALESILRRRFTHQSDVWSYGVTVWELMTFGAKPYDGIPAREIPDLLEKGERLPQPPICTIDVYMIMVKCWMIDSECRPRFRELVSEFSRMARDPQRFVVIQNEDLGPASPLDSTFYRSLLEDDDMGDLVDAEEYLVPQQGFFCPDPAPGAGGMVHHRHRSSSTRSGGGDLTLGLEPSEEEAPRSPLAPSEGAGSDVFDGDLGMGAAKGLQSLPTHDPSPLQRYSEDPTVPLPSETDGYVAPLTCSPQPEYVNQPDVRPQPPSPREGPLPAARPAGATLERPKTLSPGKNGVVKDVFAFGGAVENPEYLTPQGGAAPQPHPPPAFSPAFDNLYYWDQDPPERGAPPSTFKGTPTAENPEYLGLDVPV

As for `CC1CN(c2cc3c(Nc4cc(F)c(Oc5ccc6c(c5)nnn6C)cc4F)ncnc3cn2)C(=O)/C1=C/CN(C)C` (single isomer, unassigned) [Example S125, Enantiomer #1, (3E)-1-[4-({2,5-difluoro-4-[(1-methyl-1,2,3-benzotriazol-5-yl)oxy]phenyl}amino)pyrido[3,4-d]pyrimidin-6-yl]-3-[2-(dimethylamino)ethylidene]-4-methylpyrrolidin-2-one], the GI50 in test [1] was > 500 nM. The IC50 in test [2] was 710 nM; in test [3], > 10000 nM.

For `Cc1cc(Nc2ncnc3ccc(N4CC/C(=C\[C@@H]5CCCN5C)C4=O)nc23)ccc1Oc1ccn2ncnc2c1` [Compound 89, (S,E)-1-(4-((4-([1,2,4]triazolo[1,5-a]pyridin-7-yloxy)-3-methylphenyl)amino)pyrido[3,2-d]pyrimidin-6-yl)-3-((1-methylpyrrolidin-2-yl)methylene)pyrrolidin-2-one], the GI50 in test [1] is 1.87 nM. Further, the IC50 in test [2] was 28.9 nM; in test [3], 699 nM.

For the compound `CN(C)C/C=C1\CCN(c2ccc3ncnc(Nc4ccc(Oc5ccc6c(c5)ncn6C)c(Cl)c4)c3n2)C1=O` [Compound 98, (E)-1-(4-((3-chloro-4-((1-methyl-1H-benzo[d]imidazol-5-yl)oxy)phenyl)amino)pyrido[3,2-d]pyrimidin-6-yl)-3-(2-(dimethylamino)ethylidene)pyrrolidin-2-one], in test [1], the GI50 is 1.81 nM. Also, the IC50 in test [2] was 40.3 nM; in test [3], 942 nM.

`Cc1cc(Nc2ncnc3ccc(N4CC/C(=C\CN(C)C)C4=O)cc23)ccc1Oc1ccc2c(c1)ncn2C` [Compound 33, (E)-3-(2-(dimethylamino)ethylidene)-1-(4-((3-methyl-4-((1-methyl-1H-benzo[d]imidazol-5-yl)oxy)phenyl)amino)quinazolin-6-yl)pyrrolidin-2-one]: the GI50 in test [1] is 15.8 nM. Moreover, the IC50 in test [2] was 18.5 nM; in test [3], 1140 nM.

For the compound `CN(C)C/C=C1\CCN(c2ccc3ncnc(Nc4cc(F)c(Oc5ccn6ncnc6c5)cc4F)c3n2)C1=O` [Compound 141, (E)-1-(4-((4-([1,2,4]triazolo[1,5-a]pyridin-7-yloxy)-2,5-difluorophenyl)amino)pyrido[3,2-d]pyrimidin-6-yl)-3-(2-(dimethylamino)ethylidene)pyrrolidin-2-one], the GI50 in test [1] is 28.5 nM. Further, the results for the IC50 in test [2] and in test [3] were 23.8 nM and > 10000 nM, respectively.

Take `Cc1cc(Nc2ncnc3cnc(N4CC/C(=C\CN(C)C)C4=O)cc23)ccc1Oc1cncc(F)c1` [Compound 155, (3E)-3-[2-(dimethylamino)ethylidene]-1-[4-({4-[(5-fluoropyridin-3-yl)oxy]-3-methylphenyl}amino)pyrido[3,4-d]pyrimidin-6-yl]pyrrolidin-2-one]: the GI50 in test [1] came to 35.4 nM. For the same compound, the figures for the concentration for half-maximal inhibition (IC50) in test [2] and in test [3] were 17.9 nM and 331 nM, respectively.

`Cc1cc(Nc2ncnc3cnc(N4CC/C(=C\CCN(C)C)C4=O)cc23)ccc1Oc1ccn2ncnc2c1` [Compound 60, (E)-1-(4-(4-([1,2,4]triazolo[1,5-a]pyridin-7-yloxy)-3-methylphenylamino)pyrido[3,4-d]pyrimidin-6-yl)-3-(3-(dimethylamino)propylidene)pyrrolidin-2-one formate]: the GI50 in test [1] was 22.5 nM. In addition, the IC50 in test [2] was 12 nM; in test [3], 3040 nM.

As for `CC1CN(c2cc3c(Nc4cc(F)c(Oc5ccc6c(c5)nnn6C)cc4F)ncnc3cn2)C(=O)/C1=C/CN(C)C` (single isomer, unassigned) [Example S125, Enantiomer #2, (3E)-1-[4-({2,5-difluoro-4-[(1-methyl-1,2,3-benzotriazol-5-yl)oxy]phenyl}amino)pyrido[3,4-d]pyrimidin-6-yl]-3-[2-(dimethylamino)ethylidene]-4-methylpyrrolidin-2-one], the GI50 in test [1] is 27 nM. Also, the IC50 in test [2] was 76 nM; in test [3], 2300 nM.

On to `Cc1cc(Nc2ncnc3ccc(N4CC/C(=C\CN(C)C)C4=O)nc23)ccc1Oc1ccn2nnnc2c1` [Compound 108, (3E)-3-[2-(dimethylamino)ethylidene]-1-{4-[(3-methyl-4-{[1,2,3,4]tetrazolo[1,5-a]pyridin-7-yloxy}phenyl)amino]pyrido[3,2-d]pyrimidin-6-yl}pyrrolidin-2-one], for which the GI50 in test [1] turned out to be 11.1 nM. Also, the IC50 in test [2] worked out at 13.2 nM; in test [3], 3410 nM.

In the case of `C=C1CCN(c2ccc3ncnc(Nc4ccc(Oc5ccc6c(c5)ncn6C)c(C)c4)c3c2)C1=O` [Compound 27, 1-[4-({3-methyl-4-[(1-methyl-1,3-benzodiazol-5-yl)oxy]phenyl}amino)quinazolin-6-yl]-3-methylidenepyrrolidin-2-one], the GI50 in test [1] stood at 11.3 nM. Moreover, the IC50 came out at 17.1 nM in test [2] and 604 nM in test [3].

For `C=C1C(=O)N(c2ccc3ncnc(Nc4ccc(Oc5ccc6c(c5)ncn6C)c(C)c4)c3c2)C[C@@H]1C` [Compound 41, (R)-4-methyl-1-(4-((3-methyl-4-((1-methyl-1H-benzo[d]imidazol-5-yl)oxy)phenyl)amino)quinazolin-6-yl)-3-methylenepyrrolidin-2-one], the GI50 in test [1] came out at 29 nM. In addition, the IC50 was 29 nM in test [2] and 4490 nM in test [3].

With `Cc1cc(Nc2ncnc3ccc(N4CC/C(=C\[C@H]5CCCN5C)C4=O)nc23)ccc1Oc1ccn2ncnc2c1` [Compound 90, (R,E)-1-(4-((4-([1,2,4]triazolo[1,5-a]pyridin-7-yloxy)-3-methylphenyl)amino)pyrido[3,2-d]pyrimidin-6-yl)-3-((1-methylpyrrolidin-2-yl)methylene)pyrrolidin-2-one], the GI50 in test [1] is 10.8 nM. Besides, the IC50 in test [2] was found to be 17.1 nM; in test [3], 5770 nM.

For the compound `Cc1cc(Nc2c(C#N)cnc3ccc(N4CC/C(=C\CN(C)C)C4=O)nc23)ccc1Oc1ccc2c(c1)ncn2C` [Compound 124, 6-[(3E)-3-[2-(dimethylamino)ethylidene]-2-oxopyrrolidin-1-yl]-4-({3-methyl-4-[(1-methyl-1,3-benzodiazol-5-yl)oxy]phenyl}amino)-1,5-naphthyridine-3-carbonitrile], the GI50 in test [1] was found to be 34.2 nM. Further, the IC50 is 163 nM in test [2] and > 10000 nM in test [3].

In the case of `Cc1c(Oc2ccc3c(c2)ncn3C)ccc(Nc2ncnc3ccc(N4CC/C(=C\CN(C)C)C4=O)nc23)c1F` [Compound 69, (3E)-3-[2-(dimethylamino)ethylidene]-1-[4-({2-fluoro-3-methyl-4-[(1-methyl-1,3-benzodiazol-5-yl)oxy]phenyl}amino)pyrido[3,2-d]pyrimidin-6-yl]pyrrolidin-2-one], the GI50 in test [1] was found to be 3.57 nM. Further, the figures for the IC50 in test [2] and in test [3] were 56.4 nM and > 10000 nM, respectively.

In the case of `C=C1CCCN(c2ccc3ncnc(Nc4ccc(Oc5ccn6ncnc6c5)c(C)c4)c3n2)C1=O` [Compound 95, 1-(4-((4-([1,2,4]triazolo[1,5-a]pyridin-7-yloxy)-3-methylphenyl)amino)pyrido[3,2-d]pyrimidin-6-yl)-3-methylenepiperidin-2-one], the GI50 in test [1] came to 5.2 nM. Besides, the IC50 in test [2] is 12.2 nM; in test [3], 476 nM.

`Cc1c(Oc2ccn3ncnc3c2)ccc(Nc2ncnc3ccc(N4CC/C(=C\CN(C)C)C4=O)nc23)c1F` [Compound 78, (3E)-3-[2-(dimethylamino)ethylidene]-1-{4-[(2-fluoro-3-methyl-4-{[1,2,4]triazolo[1,5-a]pyridin-7-yloxy}phenyl)amino]pyrido[3,2-d]pyrimidin-6-yl}pyrrolidin-2-one hydrochloride]: the GI50 in test [1] was 9.92 nM. The IC50 stood at 16.8 nM in test [2] and 1570 nM in test [3].

Take `CCn1cnc2cc(Oc3ccc(Nc4ncnc5ccc(N6CC/C(=C\CN(C)C)C6=O)nc45)cc3C)ccc21` [Compound 65, (3E)-3-[2-(dimethylamino)ethylidene]-1-[4-({4-[(1-ethyl-1,3-benzodiazol-5-yl)oxy]-3-methylphenyl}amino)pyrido[3,2-d]pyrimidin-6-yl]pyrrolidin-2-one]: the GI50 in test [1] stood at 36.4 nM. In addition, the IC50 in test [2] was 128 nM; in test [3] it was > 10000 nM.

Take `Cc1cc(Nc2ncnc3ccc(N4CC/C(=C/CN(C)C)C4=O)nc23)ccc1Oc1ccc2c(c1)ncn2C` [Compound 83, (Z)-3-(2-(dimethylamino)ethylidene)-1-(4-((3-methyl-4-((1-methyl-1H-benzo[d]imidazol-5-yl)oxy)phenyl)amino)pyrido[3,2-d]pyrimidin-6-yl)pyrrolidin-2-one]: the GI50 in test [1] turned out to be 4.73 nM. Further, the IC50 in test [2] is 44.2 nM; in test [3] it was 6030 nM.

For `Cc1cc(Nc2ncnc3ccc(N4CC(C)/C(=C\CN(C)C)C4=O)nc23)ccc1Oc1ccc2c(c1)ncn2C` (single isomer, unassigned; enantiomer 1) [Example S58, Enantiomer # 1, (3E)-3-[2-(dimethylamino)ethylidene]-4-methyl-1-[4-({3-methyl-4-[(1-methyl-1,3-benzodiazol-5-yl)oxy]phenyl}amino)pyrido[3,2-d]pyrimidin-6-yl]pyrrolidin-2-one hydrochloride Enantiomer 1], in test [1], the GI50 was 1.46 nM. Also, the IC50 worked out at 29.7 nM in test [2] and 264 nM in test [3].

The values above are taken from patent publication US20240116921A1, “LACTAM (HETERO)[…] DERIVATIVES AS INHIBITORS OF ERBB2” (EnLiven Therapeutics, Inc., priority 2020, published 2024).
